# Results from ChEMBL document CHEMBL5030545, “Discovery of clinical candidate Sivopixant (S-600918): Lead optimization of dioxotriazine derivatives as selective P2X3 receptor antagonists” (Bioorg Med Chem Lett, 2021).
# What was measured:
# [1] = AUC in rat at 3 mg/kg, po; format: ADME, organism-based; design: dose 3 mg/kg; conditions: in vivo
# [2] = biological target: T1, P2X purinoceptor 7 (Homo sapiens, UniProt Q99572); assay: Antagonist activity at P2X7 receptor (unknown origin)
# T1 sequence (Q99572 whole entry): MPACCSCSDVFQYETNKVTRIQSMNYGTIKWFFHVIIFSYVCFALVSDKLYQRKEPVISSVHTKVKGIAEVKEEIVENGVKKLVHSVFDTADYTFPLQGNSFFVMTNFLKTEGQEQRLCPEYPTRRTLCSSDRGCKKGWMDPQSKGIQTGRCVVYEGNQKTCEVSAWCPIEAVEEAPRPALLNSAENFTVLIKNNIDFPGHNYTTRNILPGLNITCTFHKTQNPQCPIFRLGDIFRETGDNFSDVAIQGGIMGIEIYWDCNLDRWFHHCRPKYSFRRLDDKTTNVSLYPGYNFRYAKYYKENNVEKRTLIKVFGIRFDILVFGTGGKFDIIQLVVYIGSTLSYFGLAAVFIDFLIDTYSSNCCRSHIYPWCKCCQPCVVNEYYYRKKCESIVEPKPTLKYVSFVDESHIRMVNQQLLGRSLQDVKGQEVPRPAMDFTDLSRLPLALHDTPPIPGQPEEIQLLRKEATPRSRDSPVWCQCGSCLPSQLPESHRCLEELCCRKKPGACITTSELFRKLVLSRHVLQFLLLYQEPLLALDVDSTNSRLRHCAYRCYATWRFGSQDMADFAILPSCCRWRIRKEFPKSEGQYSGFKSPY
# [3] = Protein binding in rat plasma assessed as unbound fraction at 3 mg/kg, iv; format: ADME, organism-based
# [4] = biological target: T2, P2X purinoceptor 4 (Homo sapiens, UniProt Q99571); assay: Antagonist activity at P2X4 receptor (unknown origin)
# T2 sequence (Q99571 whole entry): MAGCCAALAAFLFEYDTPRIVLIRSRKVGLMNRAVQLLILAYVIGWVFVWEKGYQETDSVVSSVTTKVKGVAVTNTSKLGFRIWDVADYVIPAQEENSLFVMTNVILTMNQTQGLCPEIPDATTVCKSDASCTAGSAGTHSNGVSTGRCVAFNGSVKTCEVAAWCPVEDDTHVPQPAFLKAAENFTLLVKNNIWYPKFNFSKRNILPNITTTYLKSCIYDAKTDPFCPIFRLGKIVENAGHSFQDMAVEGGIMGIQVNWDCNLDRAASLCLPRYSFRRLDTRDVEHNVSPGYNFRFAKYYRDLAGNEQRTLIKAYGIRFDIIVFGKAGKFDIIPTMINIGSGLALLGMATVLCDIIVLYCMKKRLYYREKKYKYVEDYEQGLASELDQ
# [5] = Clearance in rat at 1 mg/kg, iv; format: ADME, organism-based; conditions: in vivo
# [6] = biological target: T3, Cytochrome P450 1A2 (Homo sapiens, UniProt P05177); assay: Inhibition of CYP1A2 (unknown origin); format: ADME
# T3 sequence (P05177 whole entry): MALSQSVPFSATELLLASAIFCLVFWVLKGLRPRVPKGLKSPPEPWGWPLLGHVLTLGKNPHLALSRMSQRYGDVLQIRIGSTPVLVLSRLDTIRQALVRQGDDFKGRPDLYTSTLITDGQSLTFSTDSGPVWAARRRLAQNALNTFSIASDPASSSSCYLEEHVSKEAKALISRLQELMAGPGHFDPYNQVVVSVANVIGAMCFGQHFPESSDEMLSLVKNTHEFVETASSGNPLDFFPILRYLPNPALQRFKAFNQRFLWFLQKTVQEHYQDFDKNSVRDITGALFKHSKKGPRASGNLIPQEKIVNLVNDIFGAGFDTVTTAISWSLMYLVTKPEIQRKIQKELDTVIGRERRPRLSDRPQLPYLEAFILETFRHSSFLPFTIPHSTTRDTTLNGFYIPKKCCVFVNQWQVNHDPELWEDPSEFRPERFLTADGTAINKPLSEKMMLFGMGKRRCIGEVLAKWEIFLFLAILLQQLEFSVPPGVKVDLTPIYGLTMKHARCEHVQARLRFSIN
# [7] = biological target: T4, P2X purinoceptor 3 (Rattus norvegicus, UniProt P49654); assay: Antagonist activity at rat P2X3 receptor
# T4 sequence (P49654 whole entry): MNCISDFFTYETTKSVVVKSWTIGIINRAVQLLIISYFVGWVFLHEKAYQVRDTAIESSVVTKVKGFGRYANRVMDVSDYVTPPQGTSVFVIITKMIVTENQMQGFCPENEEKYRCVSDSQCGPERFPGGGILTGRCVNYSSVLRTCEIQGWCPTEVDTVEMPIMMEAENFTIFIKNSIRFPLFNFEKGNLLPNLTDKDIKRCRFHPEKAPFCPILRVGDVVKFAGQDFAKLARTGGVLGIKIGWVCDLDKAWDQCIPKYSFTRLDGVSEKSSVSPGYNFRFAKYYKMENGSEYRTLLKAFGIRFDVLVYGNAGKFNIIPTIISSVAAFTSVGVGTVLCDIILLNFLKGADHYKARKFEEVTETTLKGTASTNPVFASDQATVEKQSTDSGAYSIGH
# [8] = biological target: Cytochrome P450 2C9 (Homo sapiens, UniProt P11712); assay: Inhibition of CYP2C9 (unknown origin); format: ADME
# [9] = Ratio of free plasma concentration in rat measured after 3 hrs to IC50 of P2X3 (unknown origin); format: ADME
# [10] = system: Rattus norvegicus; assay: Analgesic activity in rat model of partial sciatic nerve ligation-induced neuropathic pain assessed as maximum efficacy at 3 mg/kg, po relative to control; format: functional
# [11] = Cmax in rat at 3 mg/kg, po; format: ADME, organism-based; design: route oral, dose 3 mg/kg; conditions: in vivo
# [12] = biological target: T5, P2X purinoceptor 2 (Homo sapiens, UniProt Q9UBL9); assay: Antagonist activity at P2X2 receptor (unknown origin)
# T5 sequence (Q9UBL9 whole entry): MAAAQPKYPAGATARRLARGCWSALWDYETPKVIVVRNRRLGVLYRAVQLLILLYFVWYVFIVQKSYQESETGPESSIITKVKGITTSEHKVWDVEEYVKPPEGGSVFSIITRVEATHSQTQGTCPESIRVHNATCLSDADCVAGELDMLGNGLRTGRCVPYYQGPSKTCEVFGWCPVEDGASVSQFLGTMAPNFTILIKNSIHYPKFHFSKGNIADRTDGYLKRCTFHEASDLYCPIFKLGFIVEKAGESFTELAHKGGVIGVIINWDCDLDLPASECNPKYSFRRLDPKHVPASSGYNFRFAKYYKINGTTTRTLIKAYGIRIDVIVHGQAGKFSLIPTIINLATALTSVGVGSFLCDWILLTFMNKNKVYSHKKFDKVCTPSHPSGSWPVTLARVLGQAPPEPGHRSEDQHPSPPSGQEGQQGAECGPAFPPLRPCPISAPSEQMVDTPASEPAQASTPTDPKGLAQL
# [13] = Protein binding in rat plasma assessed as unbound fraction at 1 mg/kg administered as cassette dose; format: ADME, organism-based
# [14] = biological target: Cytochrome P450 2C19 (Homo sapiens, UniProt P33261); assay: Inhibition of CYP2C19 (unknown origin); format: ADME
# [15] = Free plasma concentration in rat plasma at 1 mg/kg administered as cassette dose; format: ADME, organism-based; conditions: in vivo
# [16] = system: Rattus norvegicus; assay: Analgesic activity in rat model of partial sciatic nerve ligation-induced neuropathic pain assessed as reversal of allodynia at 3 mg/kg, po measured after 3 hrs relative to control; format: functional
# Cytochrome P450 2C9, sequence (P11712 whole entry): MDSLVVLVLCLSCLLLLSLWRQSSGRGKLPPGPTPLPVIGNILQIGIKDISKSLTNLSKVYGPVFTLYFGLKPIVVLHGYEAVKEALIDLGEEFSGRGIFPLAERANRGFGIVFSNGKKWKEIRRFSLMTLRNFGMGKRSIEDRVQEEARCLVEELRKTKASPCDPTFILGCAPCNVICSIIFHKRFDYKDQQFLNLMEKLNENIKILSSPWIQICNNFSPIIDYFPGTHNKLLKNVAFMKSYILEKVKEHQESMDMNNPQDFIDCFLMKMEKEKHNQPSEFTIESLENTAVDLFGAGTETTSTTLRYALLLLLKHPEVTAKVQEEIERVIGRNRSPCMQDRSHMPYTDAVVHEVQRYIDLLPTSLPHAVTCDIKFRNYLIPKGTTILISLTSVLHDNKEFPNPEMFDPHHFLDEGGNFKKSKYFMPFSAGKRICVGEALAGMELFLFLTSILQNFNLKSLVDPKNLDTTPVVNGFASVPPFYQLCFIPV
# Cytochrome P450 2C19, sequence (P33261 whole entry): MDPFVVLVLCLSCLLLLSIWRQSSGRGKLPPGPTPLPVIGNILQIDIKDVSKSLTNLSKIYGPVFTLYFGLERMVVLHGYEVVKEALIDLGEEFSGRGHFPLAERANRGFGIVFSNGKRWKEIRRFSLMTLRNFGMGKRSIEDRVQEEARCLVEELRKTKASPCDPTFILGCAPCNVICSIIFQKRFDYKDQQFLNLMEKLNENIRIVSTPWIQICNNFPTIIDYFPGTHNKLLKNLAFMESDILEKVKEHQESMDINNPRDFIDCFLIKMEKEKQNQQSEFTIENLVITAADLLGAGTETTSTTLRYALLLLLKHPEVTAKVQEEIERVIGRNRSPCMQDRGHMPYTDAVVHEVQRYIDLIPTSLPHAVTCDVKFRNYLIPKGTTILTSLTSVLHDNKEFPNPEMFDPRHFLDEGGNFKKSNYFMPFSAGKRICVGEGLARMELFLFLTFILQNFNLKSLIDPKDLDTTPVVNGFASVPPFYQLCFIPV
compound,measurement,setting,value
C[C@@H](Cn1c(=O)[nH]/c(=N\c2ccc(Oc3ccccn3)cc2)n(Cc2ccc(Cl)cc2)c1=O)C(=O)O,AUC,[1],14000 ng·h/mL
same,IC50,[2],> 30 µM
same,fraction unbound,[3],0.01
same,IC50,[4],> 30 µM
same,clearance,[5],2.7 mL/min/kg
same,IC50,[6],> 20 µM
same,IC50,[7],0.004 µM
same,IC50,[8],> 20 µM
same,Ratio,[9],1.57
same,Emax at 3 mg/kg,[10],64%
same,Cmax,[11],1630 ng/mL
same,IC50,[12],> 30 µM
same,fraction unbound,[13],0.01
same,IC50,[14],> 20 µM
same,Cp(f),[15],658 nM
same,Activity,[16],64%
